The results in this text go back to US20030180339A1, “Topical treatment of skin” (priority 2002, published 2003).

This test relates to sebum. The test is described as follows: Oil reduction potential of moisturising gels, blinded randomised study in India, Sebumeter SM810 (Example 34). The test is classed as in vivo, human. The procedure:
A study was conducted on 37 normal volunteers in India to determine the oil reduction potential of moisturising gels containing sebum reduction agents.
This study was a blinded, randomised study comparing 2 test gels (containing Cedar wood and Poplar bud) with standard preparation (containing Elubiol).
Women volunteers between the age of 17 and 19 years were screened by measuring sebumeter readings of the left forehead using a Sebumeter SM810. Those volunteers had subumeter reading of […] or above.
These volunteers were instructed to avoid any other face cream, face wash or any other cosmetics during the 8 weeks of the study. After recruitment, volunteers were instructed to use the face wash for the first 2 weeks. This period was considered as the conditioning period.
A baseline sebumeter reading was taken at the end of the conditioning period on 4 sites i.e. left forehead, left cheek, right forehead, and right cheek. Tubes containing the test medicines (which were coded and randomly allocated to each site) were dispensed to the volunteers. Each volunteer was given two test gels, one for left side of the face and the other for right side of the face. […]
The volunteer was requested to make a note of application of face wash and face cream daily on the given diary sheets. Sebumeter readings were taken 3 weeks and 6 weeks later.

With `CCOC(=O)N1CCN(c2ccc(OC[C@H]3CO[C@](Cn4ccnc4)(c4ccc(Cl)cc4Cl)O3)cc2)CC1` [Elubiol, dichlorophenyl-imidazoltioxolan], the “effect on sebumeter readings, comparison between treatments” value (at 6 weeks) is given as “improved”. The “fall in the sebum reading at 6 weeks as compared to 3 weeks” value (gel twice a day) is recorded as “significantly greater fall”.
